Test results reported in patent US11339130B1 (Blade Therapeutics, Inc., priority 2016, dated 2022).
Where two headings read alike, the source gives them in different places.

Columns and labels:
[1] = target: T1, Human Calpain 1/NS1 (Homo sapiens, UniProt P07384); assay: Calpain inhibition continuous fluorescence (FRET) assay, Human Calpain 1/NS1; type: biochemical; settings: read-out: Human Calpain 1/NS1 IC50
T1 sequence (P07384 1-714): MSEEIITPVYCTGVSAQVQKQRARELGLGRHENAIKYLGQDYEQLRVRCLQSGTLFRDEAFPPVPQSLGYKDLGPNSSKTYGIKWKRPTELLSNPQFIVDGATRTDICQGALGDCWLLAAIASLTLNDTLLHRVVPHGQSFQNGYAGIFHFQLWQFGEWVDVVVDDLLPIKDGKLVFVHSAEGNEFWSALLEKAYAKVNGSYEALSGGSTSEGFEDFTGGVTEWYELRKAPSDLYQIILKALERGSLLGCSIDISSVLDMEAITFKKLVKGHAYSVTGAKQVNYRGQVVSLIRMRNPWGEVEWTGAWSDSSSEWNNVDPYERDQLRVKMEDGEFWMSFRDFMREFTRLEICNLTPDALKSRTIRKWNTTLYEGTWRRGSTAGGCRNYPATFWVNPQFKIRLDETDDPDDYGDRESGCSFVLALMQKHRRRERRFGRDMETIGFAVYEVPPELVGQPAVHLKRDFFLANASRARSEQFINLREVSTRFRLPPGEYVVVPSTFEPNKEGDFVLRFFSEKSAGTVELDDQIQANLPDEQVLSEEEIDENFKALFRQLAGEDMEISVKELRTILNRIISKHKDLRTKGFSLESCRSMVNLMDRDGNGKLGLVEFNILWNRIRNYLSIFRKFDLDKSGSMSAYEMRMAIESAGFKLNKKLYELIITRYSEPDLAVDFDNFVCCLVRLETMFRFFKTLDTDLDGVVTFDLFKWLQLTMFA
T1 sequence (P04632 1-268 partner): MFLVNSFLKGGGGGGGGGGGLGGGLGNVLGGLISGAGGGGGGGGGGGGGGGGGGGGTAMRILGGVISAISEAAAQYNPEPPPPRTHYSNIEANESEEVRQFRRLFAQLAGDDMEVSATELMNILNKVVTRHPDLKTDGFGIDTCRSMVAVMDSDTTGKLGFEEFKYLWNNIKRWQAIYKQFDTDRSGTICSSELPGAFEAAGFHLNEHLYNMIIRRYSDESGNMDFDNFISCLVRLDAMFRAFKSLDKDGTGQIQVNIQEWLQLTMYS
Outline: (§1)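 Calpain activity is measured kinetically with a quenched FRET peptide in 50 mM Tris pH 7.5, 100 mM NaCl, 1 mM DTT, with CaCl2 triggering activation. Rates over 1-5 min are plotted against log inhibitor to obtain IC50 by 4-parameter logistic fitting.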

[2] = target: T2, Human Calpain 2/NS1 (Homo sapiens, UniProt P17655); assay: Calpain inhibition continuous fluorescence (FRET) assay, Human Calpain 2/NS1; type: biochemical; settings: read-out: Human Calpain 2/NS1 IC50
T2 sequence (P17655 1-700): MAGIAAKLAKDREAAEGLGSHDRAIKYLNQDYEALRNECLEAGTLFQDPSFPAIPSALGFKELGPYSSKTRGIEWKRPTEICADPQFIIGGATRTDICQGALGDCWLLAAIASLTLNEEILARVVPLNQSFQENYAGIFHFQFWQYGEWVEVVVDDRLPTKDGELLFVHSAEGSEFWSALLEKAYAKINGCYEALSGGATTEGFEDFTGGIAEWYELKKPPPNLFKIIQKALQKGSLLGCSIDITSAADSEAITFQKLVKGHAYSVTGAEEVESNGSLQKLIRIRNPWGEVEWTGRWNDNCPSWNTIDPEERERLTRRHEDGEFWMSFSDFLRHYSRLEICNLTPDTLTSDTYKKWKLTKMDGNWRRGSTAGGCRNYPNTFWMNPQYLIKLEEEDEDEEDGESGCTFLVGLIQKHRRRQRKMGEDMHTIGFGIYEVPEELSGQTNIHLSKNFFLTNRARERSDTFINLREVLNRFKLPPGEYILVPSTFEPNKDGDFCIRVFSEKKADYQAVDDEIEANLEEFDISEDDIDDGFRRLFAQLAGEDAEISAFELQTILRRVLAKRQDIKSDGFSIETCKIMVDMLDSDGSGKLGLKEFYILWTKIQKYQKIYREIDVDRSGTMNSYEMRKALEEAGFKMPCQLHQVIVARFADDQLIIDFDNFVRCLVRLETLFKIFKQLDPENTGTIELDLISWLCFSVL
T2 sequence (P04632 1-268 partner): T1 sequence (P04632 1-268 partner)
Outline: as §1

[3] = target: T3, Human Calpain 9/NS1 (Homo sapiens, UniProt O14815); assay: Calpain inhibition continuous fluorescence (FRET) assay, Human Calpain 9/NS1; type: biochemical; settings: read-out: Human Calpain 9/NS1 IC50
T3 sequence (O14815 1-690): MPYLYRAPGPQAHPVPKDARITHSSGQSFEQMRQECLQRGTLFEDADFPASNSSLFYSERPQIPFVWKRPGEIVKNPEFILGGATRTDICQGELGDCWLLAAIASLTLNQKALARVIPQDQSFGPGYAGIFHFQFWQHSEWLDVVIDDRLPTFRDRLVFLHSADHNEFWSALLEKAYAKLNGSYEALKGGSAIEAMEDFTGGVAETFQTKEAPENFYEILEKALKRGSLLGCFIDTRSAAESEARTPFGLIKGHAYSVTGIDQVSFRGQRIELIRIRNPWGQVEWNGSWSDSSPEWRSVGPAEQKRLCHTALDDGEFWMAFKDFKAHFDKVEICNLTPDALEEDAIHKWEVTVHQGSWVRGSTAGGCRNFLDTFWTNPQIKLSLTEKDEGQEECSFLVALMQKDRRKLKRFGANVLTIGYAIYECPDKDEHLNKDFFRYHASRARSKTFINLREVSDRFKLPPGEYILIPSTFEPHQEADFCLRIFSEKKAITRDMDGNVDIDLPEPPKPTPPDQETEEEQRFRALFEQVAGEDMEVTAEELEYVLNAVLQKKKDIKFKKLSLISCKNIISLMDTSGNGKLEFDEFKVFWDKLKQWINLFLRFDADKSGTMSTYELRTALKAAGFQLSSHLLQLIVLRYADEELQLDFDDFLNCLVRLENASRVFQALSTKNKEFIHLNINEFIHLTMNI
T3 sequence (P04632 1-268 partner): T1 sequence (P04632 1-268 partner)
Outline: as §1

[4] = test system: Calpain activity in SH-SY5Y cells (SBDP-150); assay: SH-SY5Y Spectrin western blot assay (SBDP-150 breakdown product, A23187-induced); type: cell-based; settings: Homo sapiens, SH-SY5Y cells, read-out: SH-SY5Y Spectrin IC50
[5] = test system: Calpain activity in SH-SY5Y cells; assay: SH-SY5Y + AMC fluorescence assay (Suc-LLVY-AMC substrate); type: cell-based; settings: read-out: SH-SY5Y + AMC IC50
[6] = Column D, A23187-induced SBDP-150
[7] = A23187-induced SBDP-150, western blot

Compound | IC50 ([1]; Column A) [µM] | IC50 ([2]; Column B) [µM] | IC50 ([3]; Column C) [µM] | IC50 [4, 6] [µM] | IC50 ([5]; Column E) [µM] | IC50 [1] [µM] | IC50 [2] [µM] | IC50 [3] [µM] | IC50 [4, 7] [µM] | IC50 [5] [µM]
Cn1cc(C(=O)N[C@@H](Cc2ccccc2)C(=O)C(N)=O)c(-c2cccc(F)c2)n1 [Compound 178, (S)—N-(4-amino-3,4-dioxo-1-phenylbutan-2-yl)-3-(3-fluorophenyl)-1-methyl-1H-pyrazole-4-carboxamide] | < 3 | < 3 | < 3 | < 10 | < 10 |  |  |  |  | 
NC(=O)C(=O)C(Cc1ccccc1)NC(=O)c1nsnc1-c1cccc2c1OC(F)(F)O2 (stereo not shown) [Compound 578, N-(4-amino-3,4-dioxo-1-phenylbutan-2-yl)-4-(2,2-difluorobenzo[d][1,3]dioxol-4-yl)-1,2,5-thiadiazole-3-carboxamide] |  |  |  |  |  | < 3 | < 3 | < 3 | < 10 | < 10
Cc1c(F)cccc1-c1oncc1C(=O)NC(Cc1ccccc1)C(=O)C(N)=O (stereo not shown) [Compound 594, N-(4-amino-3,4-dioxo-1-phenylbutan-2-yl)-5-(3-fluoro-2-methylphenyl)isoxazole-4-carboxamide] |  |  |  |  |  | < 3 | < 3 | < 3 | 10 to 25 | < 10
Cn1cc(C(=O)N[C@@H](Cc2ccccc2)C(=O)C(N)=O)c(-c2cccc(Cl)c2)n1 [Compound 187, (S)—N-(4-amino-3,4-dioxo-1-phenylbutan-2-yl)-3-(3-chlorophenyl)-1-methyl-1H-pyrazole-4-carboxamide] | < 3 | < 3 | < 3 | 10 to 25 | > 25 |  |  |  |  | 
Cc1cccc(-c2c(C(=O)N[C@@H](Cc3ccccc3)C(=O)C(N)=O)cnn2C)c1 [Compound 172, (S)—N-(4-amino-3,4-dioxo-1-phenylbutan-2-yl)-1-methyl-5-(m-tolyl)-1H-pyrazole-4-carboxamide] | < 3 | < 3 | < 3 | < 10 | > 25 |  |  |  |  | 
Cn1cc(C(=O)NC(Cc2ccccc2)C(=O)C(N)=O)c(-c2cccc3c2OCO3)n1 (stereo not shown) [Compound 514, N-(4-amino-3,4-dioxo-1-phenylbutan-2-yl)-3-(benzo[d][1,3]dioxol-4-yl)-1-methyl-1H-pyrazole-4-carboxamide] |  |  |  |  |  | < 3 | < 3 | < 3 | > 25 | < 10
CN(C)C(=O)CNC(=O)C(=O)[C@H](Cc1ccccc1)NC(=O)c1cn(C)nc1-c1ccccc1 [Compound 337, (S)—N-(4-((2-(dimethylamino)-2-oxoethyl)amino)-3,4-dioxo-1-phenylbutan-2-yl)-1-methyl-3-phenyl-1H-pyrazole-4-carboxamide] |  |  |  |  |  | < 3 | < 3 | < 3 | < 10 | < 10
Cc1ccc(C)c(-c2nn(C(F)F)cc2C(=O)NC(Cc2ccccc2)C(=O)C(N)=O)c1 (stereo not shown) [Compound 524, N-(4-amino-3,4-dioxo-1-phenylbutan-2-yl)-1-(difluoromethyl)-3-(2,5-dimethylphenyl)-1H-pyrazole-4-carboxamide] |  |  |  |  |  | < 3 | < 3 | < 3 | 10 to 25 | < 10
Cn1cc(C(=O)NC(Cc2ccccc2)C(=O)C(N)=O)c(-c2ccccc2Cl)n1 (stereo not shown) [Compound 604, N-(4-amino-3,4-dioxo-1-phenylbutan-2-yl)-3-(2-chlorophenyl)-1-methyl-1H-pyrazole-4-carboxamide] |  |  |  |  |  | < 3 | < 3 | < 3 | > 25 | < 10
Cn1cc(C(=O)N[C@H](C=O)Cc2ccccc2)c(-c2ccccc2)n1 [Compound 317, (S)-1-methyl-N-(1-oxo-3-phenylpropan-2-yl)-3-phenyl-1H-pyrazole-4-carboxamide] |  |  |  |  |  | < 3 | < 3 | < 3 | 10 to 25 | > 25
Cn1cc(C(=O)NC(Cc2ccccc2)C(=O)C(N)=O)c(-c2ccoc2)n1 (stereo not shown) [Compound 502, N-(4-amino-3,4-dioxo-1-phenylbutan-2-yl)-3-(furan-3-yl)-1-methyl-1H-pyrazole-4-carboxamide] |  |  |  |  |  | < 3 | < 3 | < 3 | 10 to 25 | < 10
NC(=O)C(=O)[C@H](Cc1ccccc1)NC(=O)c1ocnc1-c1ccccc1 [Compound 303, (S)—N-(4-amino-3,4-dioxo-1-phenylbutan-2-yl)-4-phenyloxazole-5-carboxamide] | < 3 | < 3 | < 3 | 10 to 25 | < 10 |  |  |  |  | 
Cc1ccc(-c2nn(C)cc2C(=O)NC(Cc2ccccc2)C(=O)C(N)=O)o1 (stereo not shown) [Compound 498, N-(4-amino-3,4-dioxo-1-phenylbutan-2-yl)-1-methyl-3-(5-methylfuran-2-yl)-1H-pyrazole-4-carboxamide] |  |  |  |  |  | < 3 | < 3 | < 3 | > 25 | 10 to 25
Cc1cc(C(=O)N[C@@H](Cc2ccccc2)C(=O)C(N)=O)n(-c2ccc(OC(F)(F)F)cc2)n1 [Compound 19, (S)—N-(4-amino-3,4-dioxo-1-phenylbutan-2-yl)-3-methyl-1-(4-(trifluoromethoxy)phenyl)-1H-pyrazole-5-carboxamide] | < 3 | < 3 | < 3 | 10 to 25 | > 25 |  |  |  |  | 
